Consider three substances from patent publication US8076059B2 (priority 2003, dated 2011).

Test systems include peripheral mast cells; anti-PA IgG; CD4 T-cells.
What all share (parameters): species or system mice
Conditions in all cases: mouse, in vivo

For TNF-α, in the assay on peripheral mast cells, the “lymph node hypertrophy after direct injection into footpads” value was “marked lymph node hypertrophy” and the “time of maximal lymph node growth” value came out at 48 h.

cholera toxin [CT]: in the assay on anti-PA IgG, the “adjuvant activity, serum anti-PA IgG by ELISA on day 175” value is “significant adjuvant activity over PA alone” and the “adjuvant activity, serum anti-PA IgG geometric mean titers” value is “significant adjuvant activity at all doses tested”.

Take pertussis toxin: the “T-cell recruitment to draining lymph nodes after T-cell pretreatment” value in the assay with CD4 T-cells is recorded as “inhibited T-cell recruitment to draining lymph nodes”.
